Test results from ChEMBL document CHEMBL5331119, “Basic Nitrogen (BaN) Is a Key Property of Antimalarial Chemical Space” (J Med Chem, 2023).
One block for each molecule: values may come before it.

Legend:
[1] = test system: Plasmodium falciparum; test: Antiplasmodial activity against Plasmodium falciparum NF54 incubated for 48 hrs by lactate dehydrogenase assay; type: functional, organism-based; conditions: NF54, 48 h
[2] = test system: Plasmodium falciparum; test: Antiplasmodial activity against Plasmodium falciparum K1 assessed as inhibition of parasite growth by microdilution analysis; type: functional, organism-based
[3] = test system: Plasmodium falciparum; test: Antiplasmodial activity against Plasmodium falciparum NF54 assessed as inhibition of parasite growth by microdilution analysis; type: functional, organism-based
[4] = test system: Plasmodium falciparum; test: Antimalarial activity against Plasmodium falciparum FcB1; type: functional, organism-based
[5] = test system: Plasmodium falciparum; test: Antiplasmodial activity against Plasmodium falciparum 3D7; type: functional, organism-based
[6] = target: human dihydroorotate dehydrogenase (DHODH), mitochondrial (Homo sapiens, UniProt Q02127); test: in vitro
human dihydroorotate dehydrogenase (DHODH), mitochondrial, sequence (Q02127 whole entry): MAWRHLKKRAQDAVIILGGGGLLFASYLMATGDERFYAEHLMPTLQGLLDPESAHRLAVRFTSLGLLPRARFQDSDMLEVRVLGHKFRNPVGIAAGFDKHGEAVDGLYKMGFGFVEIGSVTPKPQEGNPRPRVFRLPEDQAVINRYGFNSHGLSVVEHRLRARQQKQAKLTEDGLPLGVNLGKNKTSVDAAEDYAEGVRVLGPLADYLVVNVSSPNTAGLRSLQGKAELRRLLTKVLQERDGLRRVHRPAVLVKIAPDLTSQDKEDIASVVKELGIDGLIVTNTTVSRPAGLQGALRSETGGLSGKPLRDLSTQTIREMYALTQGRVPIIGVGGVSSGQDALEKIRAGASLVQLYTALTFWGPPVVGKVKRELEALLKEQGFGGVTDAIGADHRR
Description: Inhibition of human DHODH

IC50 [1]: 5260 nM
SMILES: Cc1ccc(S(=O)(=O)N2CCN(c3nc4cc(Cl)ccc4n3Cc3ccccc3)CC2)cc1

SMILES: CCN(CC)CCCC(C)Cc1ccnc2cc(Cl)ccc12 (stereo not drawn)
IC50 [2]: 3000 nM
IC50 [3]: 3000 nM

SMILES: C[C@H]1[C@H](C)CC[C@]2(C(=O)O)CC[C@]3(C)C(=CC[C@@H]4[C@@]5(C)CC[C@H](O)C(C)(C)[C@@H]5CC[C@]43C)[C@H]12 [URSOLIC ACID]
IC50 [4]: 52900 nM

SMILES: CC[C@H]1OC(=O)[C@H](C)[C@@H](O[C@H]2C[C@@](C)(OC)[C@@H](O)[C@H](C)O2)[C@H](C)[C@@H](O[C@@H]2O[C@H](C)C[C@H](N(C)C)[C@H]2O)[C@](C)(O)C[C@@H](C)CN(C)[C@H](C)[C@@H](O)[C@]1(C)O [AZITHROMYCIN]
IC50 [5]: 2650 nM

IC50 [6]: > 100000 nM
SMILES: Cc1c(Cc2cnc(C(F)(F)F)nc2)c[nH]c1C(=O)NC1CC1

EC50 [5]: 230 nM
IC50 [6]: > 100000 nM
SMILES: CCOC(=O)c1[nH]c(C)c(Cc2ccc(OCC)cc2)c1C

IC50 [1]: > 1000 nM
SMILES: CC(=O)N1CCN(c2nc3cc(Cl)ccc3n2Cc2ccccc2)CC1

IC50 [1]: > 1000 nM
SMILES: O=C1CN(c2nc3cc(Cl)ccc3n2Cc2ccccc2)CCN1

EC50 [5]: 9 nM
IC50 [6]: > 100000 nM
SMILES: CCOC(=O)c1[nH]c(C)c(Cc2ccc(C(F)(F)F)nc2)c1C

IC50 [4]: 80 nM
SMILES: C[C@H]1[C@H](C)CC[C@]2(C(=O)NCCCN3CCN(CCCNCc4ccc(O)cc4)CC3)CC[C@]3(C)C(=CC[C@@H]4[C@@]5(C)CC[C@H](O)C(C)(C)[C@@H]5CC[C@]43C)[C@H]12 (single isomer, unassigned)

EC50 [5]: 61 nM
IC50 [6]: > 100000 nM
SMILES: CCOC(=O)c1[nH]c(C)c(Cc2ccc(C(F)(F)F)cc2)c1C

IC50 [6]: > 100000 nM
SMILES: Cc1[nH]c(C(=O)NC2CC2)c(C)c1Cc1ccc(C(F)(F)F)nc1

SMILES: CCN(CC)CCCC(C)Nc1cccc2cc(Cl)ccc12 (stereo not drawn)
IC50 [2]: 3000 nM
IC50 [3]: 3000 nM
